Assay results published in the supplement of paper PMC10307832.

Tests used:
Test in all cases: relative viability (nuclei count vs DMSO), 5 days (fraction); higher = more cells survive
Linsitinib + Lapatinib = compound: C[C@]1(O)C[C@@H](c2nc(-c3ccc4ccc(-c5ccccc5)nc4c3)c3c(N)nccn32)C1 [Linsitinib] + CS(=O)(=O)CCNCc1ccc(-c2ccc3ncnc(Nc4ccc(OCc5cccc(F)c5)c(Cl)c4)c3c2)o1 [Lapatinib] (partner 2 µM)
How it was run: (§1)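 One day after seeding in 1536-well plates, lung cancer cell lines were dosed by pin tool. Dosing was either single-drug or a fixed anchor-drug dose plus five library-drug doses (not always all listed) in √10 steps. After 5 days, nuclei were stained in one fix-and-stain step and counted on 4× images, and relative viability is the nuclei count of treated wells over that of vehicle wells, given as the median of duplicate plates.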

Ispinesib + Navitoclax = compound: Cc1ccc(C(=O)N(CCCN)[C@@H](c2nc3cc(Cl)ccc3c(=O)n2Cc2ccccc2)C(C)C)cc1 [Ispinesib] + CC1(C)CCC(c2ccc(Cl)cc2)=C(CN2CCN(c3ccc(C(=O)NS(=O)(=O)c4ccc(N[C@H](CCN5CCOCC5)CSc5ccccc5)c(S(=O)(=O)C(F)(F)F)c4)cc3)CC2)C1 [Navitoclax] (partner 0.5 µM)
How it was run: as §1

Ispinesib + Crizotinib = compound: Cc1ccc(C(=O)N(CCCN)[C@@H](c2nc3cc(Cl)ccc3c(=O)n2Cc2ccccc2)C(C)C)cc1 [Ispinesib] + C[C@@H](Oc1cc(-c2cnn(C3CCNCC3)c2)cnc1N)c1c(Cl)ccc(F)c1Cl [Crizotinib] (partner 1 µM)
How it was run: as §1

Ispinesib + AZD7762 = compound: Cc1ccc(C(=O)N(CCCN)[C@@H](c2nc3cc(Cl)ccc3c(=O)n2Cc2ccccc2)C(C)C)cc1 [Ispinesib] + NC(=O)Nc1cc(-c2cccc(F)c2)sc1C(=O)N[C@H]1CCCNC1 [AZD7762] (partner 0.2 µM)
How it was run: as §1

Cell Line | relative viability (Linsitinib + Lapatinib; first compound 0.01 µM) | relative viability (Linsitinib + Lapatinib; first compound 0.03162 µM) | relative viability (Linsitinib + Lapatinib; first compound 0.1 µM) | relative viability (Linsitinib + Lapatinib; first compound 0.3162 µM) | relative viability (Linsitinib + Lapatinib; first compound 1 µM) | relative viability (Ispinesib + Navitoclax; first compound 0.001 µM) | relative viability (Ispinesib + Navitoclax; first compound 0.003162 µM) | relative viability (Ispinesib + Navitoclax; first compound 0.01 µM) | relative viability (Ispinesib + Navitoclax; first compound 0.03162 µM) | relative viability (Ispinesib + Navitoclax; first compound 0.1 µM) | relative viability (Ispinesib + Crizotinib; first compound 0.001 µM) | relative viability (Ispinesib + Crizotinib; first compound 0.003162 µM) | relative viability (Ispinesib + Crizotinib; first compound 0.01 µM) | relative viability (Ispinesib + Crizotinib; first compound 0.03162 µM) | relative viability (Ispinesib + Crizotinib; first compound 0.1 µM) | relative viability (Ispinesib + AZD7762; first compound 0.001 µM) | relative viability (Ispinesib + AZD7762; first compound 0.003162 µM) | relative viability (Ispinesib + AZD7762; first compound 0.01 µM) | relative viability (Ispinesib + AZD7762; first compound 0.03162 µM) | relative viability (Ispinesib + AZD7762; first compound 0.1 µM)
NCI-H1944 | 0.787 | 0.833 | 0.872 | 0.527 | 0.46 | 0.994 | 1.09 | 1.02 | 0.785 | 0.806 | 1.2 | 1.16 | 1.18 | 0.697 | 0.573 | 0.443 | 0.483 | 0.482 | 0.32 | 0.189
NCI-H1975 | 0.825 | 0.82 | 0.866 | 1.04 | 0.684 | 1.16 | 1.25 | 1.27 | 1.14 | 0.186 | 1.09 | 1.02 | 1.08 | 0.491 | 0.205 | 0.678 | 0.829 | 0.781 | 0.617 | 0.279
NCI-H1993 | 0.784 | 0.793 | 0.76 | 0.498 | 0.684 | 0.869 | 0.944 | 0.87 | 0.84 | 0.526 | 0.837 | 0.914 | 0.874 | 0.891 | 0.661 | 0.918 | 0.821 | 0.636 | 0.646 | 0.508
NCI-H2085 | 0.701 | 0.822 | 0.822 | 0.753 | 0.658 | 1.12 | 1.17 | 1.19 | 1.13 | 0.672 | 0.931 | 0.973 | 0.701 | 0.777 | 0.56 | 0.962 | 1.08 | 1.07 | 0.806 | 0.466
NCI-H2087 | 0.886 | 1.26 | 1.13 | 0.349 | 0.626 | 0.976 | 1.07 | 1.23 | 0.933 | 0.156 | 0.839 | 1 | 0.995 | 0.61 | 0.146 | 1.35 | 1.37 | 1.48 | 1.02 | 0.558
NCI-H2126 | 0.774 | 0.754 | 0.704 | 0.392 | 0.455 | 0.844 | 0.862 | 0.861 | 0.842 | 0.818 | 1.03 | 1.05 | 1.09 | 1.07 | 0.923 | 1.04 | 1.08 | 1.2 | 1.03 | 0.591
NCI-H2170 | 0.266 | 0.256 | 0.276 | 0.256 | 0.228 | 0.617 | 0.61 | 0.624 | 0.324 | 0.258 | 1.34 | 1.31 | 1.33 | 0.693 | 0.411 | 0.897 | 0.88 | 0.909 | 0.225 | 0.17
NCI-H2347 | 0.821 | 0.998 | 0.969 | 0.461 | 0.772 | 0.819 | 0.727 | 0.967 | 0.762 | 0.609 | 0.714 | 0.833 | 0.717 | 0.544 | 0.402 | 0.558 | 0.856 | 0.745 | 0.701 | 0.636
